# Measured values: PubChem BioAssay AID1963846 (Molecular Pharmacology Branch, DTP, NCI, 2024)
# Tested on: 454973-116-R2-J3-PDC complex spheroid viability
# Experiment: Anticancer human tumor 454973-116-R2-J3-PDC patient-derived pancreatic carcinoma cell line growth inhibition [POLQ]
# Settings: for IC50: curve of first compound; for viability, T/C: stronger effect = lower value
# Method in brief: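 Patient-derived tumour cells were co-cultured with HUVEC and mesenchymal stem cells as multicellular spheroids at 37 °C. They were treated with POLQ inhibitors (novobiocin, ART-558, RP6685) alone or combined with other agents. Top concentrations were at or near clinical Cmax (otherwise 10 microM; SN-38 at 1 microM), decreasing in half-log steps.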
# [1] = second compound 0.0316 µM, first compound 0.0316 µM
# [2] = second compound 0.0316 µM, first compound 0.1 µM
# [3] = second compound 0.1 µM, first compound 0.0316 µM
# [4] = second compound 0.1 µM, first compound 0.1 µM
# [5] = second compound 0.316 µM, first compound 0.0316 µM
# [6] = second compound 0.316 µM, first compound 0.1 µM
# [7] = second compound 1 µM, first compound 0.0316 µM
# [8] = second compound 1 µM, first compound 0.1 µM
# [9] = second compound 3.16 µM, first compound 0.0316 µM
# [10] = second compound 3.16 µM, first compound 0.1 µM
# [11] = second compound 10 µM, first compound 0.0316 µM
# [12] = second compound 10 µM, first compound 0.1 µM
# 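Note: spheroids exposed to drugs for seven days before measurement.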
# 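Throughout, for viability, T/C: percent viability relative to DMSO vehicle control wells taken as 100%.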
smiles,measurement,setting,value
CC1COCCN1c1cc(C2(O)CC3CCC(C2)O3)c2cnn(-c3ccn[nH]3)c2n1 (centres undefined) + Nc1ccc(C#CCN(C(=O)Cc2ncc(C(F)(F)F)cc2C(F)(F)F)c2ccc(F)cc2)nn1,IC50,second compound 0.0316 µM,120 nM
same,IC50,second compound 0.1 µM,114 nM
same,IC50,second compound 0.316 µM,86.8 nM
same,IC50,second compound 1 µM,95.2 nM
same,IC50,second compound 3.16 µM,104 nM
same,IC50,second compound 10 µM,108 nM
same,"viability, T/C",[1],83.7%
same,"viability, T/C",[2],55.6%
same,"viability, T/C","second compound 0.0316 µM, first compound 0.316 µM",21%
same,"viability, T/C","second compound 0.0316 µM, first compound 1 µM",12.5%
same,"viability, T/C","second compound 0.0316 µM, first compound 3.16 µM",16.3%
same,"viability, T/C","second compound 0.0316 µM, first compound 10 µM",10.3%
same,"viability, T/C",[3],84.1%
same,"viability, T/C",[4],54%
same,"viability, T/C","second compound 0.1 µM, first compound 0.316 µM",19.8%
same,"viability, T/C","second compound 0.1 µM, first compound 1 µM",12.3%
same,"viability, T/C","second compound 0.1 µM, first compound 3.16 µM",15.2%
same,"viability, T/C","second compound 0.1 µM, first compound 10 µM",13%
same,"viability, T/C",[5],87.1%
same,"viability, T/C",[6],44.8%
same,"viability, T/C","second compound 0.316 µM, first compound 0.316 µM",18.7%
same,"viability, T/C","second compound 0.316 µM, first compound 1 µM",11.5%
same,"viability, T/C","second compound 0.316 µM, first compound 3.16 µM",14.3%
same,"viability, T/C","second compound 0.316 µM, first compound 10 µM",11.2%
same,"viability, T/C",[7],80.4%
same,"viability, T/C",[8],48.6%
same,"viability, T/C","second compound 1 µM, first compound 0.316 µM",15.4%
same,"viability, T/C","second compound 1 µM, first compound 1 µM",11%
same,"viability, T/C","second compound 1 µM, first compound 3.16 µM",13.4%
same,"viability, T/C","second compound 1 µM, first compound 10 µM",11.7%
same,"viability, T/C",[9],88.1%
same,"viability, T/C",[10],51.1%
same,"viability, T/C","second compound 3.16 µM, first compound 0.316 µM",20.9%
same,"viability, T/C","second compound 3.16 µM, first compound 1 µM",10.7%
same,"viability, T/C","second compound 3.16 µM, first compound 3.16 µM",15.2%
same,"viability, T/C","second compound 3.16 µM, first compound 10 µM",10.3%
same,"viability, T/C",[11],91.6%
same,"viability, T/C",[12],52.4%
same,"viability, T/C","second compound 10 µM, first compound 0.316 µM",14.7%
same,"viability, T/C","second compound 10 µM, first compound 1 µM",9.37%
same,"viability, T/C","second compound 10 µM, first compound 3.16 µM",11.2%
same,"viability, T/C","second compound 10 µM, first compound 10 µM",10.2%
Cn1ncnc1[C@H]1c2n[nH]c(=O)c3cc(F)cc(c23)N[C@@H]1c1ccc(F)cc1 + Nc1ccc(C#CCN(C(=O)Cc2ncc(C(F)(F)F)cc2C(F)(F)F)c2ccc(F)cc2)nn1,IC50,second compound 0.0316 µM,> 100 nM
same,IC50,second compound 0.1 µM,> 100 nM
same,IC50,second compound 0.316 µM,> 100 nM
same,IC50,second compound 1 µM,> 100 nM
same,IC50,second compound 3.16 µM,> 100 nM
same,IC50,second compound 10 µM,> 100 nM
same,"viability, T/C","second compound 0.0316 µM, first compound 0.000316 µM",107%
same,"viability, T/C","second compound 0.0316 µM, first compound 0.001 µM",93.9%
same,"viability, T/C","second compound 0.0316 µM, first compound 0.00316 µM",98%
same,"viability, T/C","second compound 0.0316 µM, first compound 0.01 µM",90.9%
same,"viability, T/C",[1],93.6%
same,"viability, T/C",[2],82.3%
same,"viability, T/C","second compound 0.1 µM, first compound 0.000316 µM",108%
same,"viability, T/C","second compound 0.1 µM, first compound 0.001 µM",104%
same,"viability, T/C","second compound 0.1 µM, first compound 0.00316 µM",96.7%
same,"viability, T/C","second compound 0.1 µM, first compound 0.01 µM",98.9%
same,"viability, T/C",[3],97.2%
same,"viability, T/C",[4],79.9%
same,"viability, T/C","second compound 0.316 µM, first compound 0.000316 µM",105%
same,"viability, T/C","second compound 0.316 µM, first compound 0.001 µM",102%
same,"viability, T/C","second compound 0.316 µM, first compound 0.00316 µM",102%
same,"viability, T/C","second compound 0.316 µM, first compound 0.01 µM",92.3%
same,"viability, T/C",[5],101%
same,"viability, T/C",[6],89.2%
same,"viability, T/C","second compound 1 µM, first compound 0.000316 µM",109%
same,"viability, T/C","second compound 1 µM, first compound 0.001 µM",105%
same,"viability, T/C","second compound 1 µM, first compound 0.00316 µM",108%
same,"viability, T/C","second compound 1 µM, first compound 0.01 µM",105%
same,"viability, T/C",[7],91.6%
same,"viability, T/C",[8],82.9%
same,"viability, T/C","second compound 3.16 µM, first compound 0.000316 µM",111%
same,"viability, T/C","second compound 3.16 µM, first compound 0.001 µM",116%
same,"viability, T/C","second compound 3.16 µM, first compound 0.00316 µM",102%
same,"viability, T/C","second compound 3.16 µM, first compound 0.01 µM",100%
same,"viability, T/C",[9],96.3%
same,"viability, T/C",[10],84.7%
same,"viability, T/C","second compound 10 µM, first compound 0.000316 µM",112%
same,"viability, T/C","second compound 10 µM, first compound 0.001 µM",109%
same,"viability, T/C","second compound 10 µM, first compound 0.00316 µM",117%
same,"viability, T/C","second compound 10 µM, first compound 0.01 µM",107%
same,"viability, T/C",[11],113%
same,"viability, T/C",[12],95.8%
